Assay results reported in US20240150401A1, “INSECT NEUROPEPTIDES 7” (Solasta Bio Limited, priority 2022, published 2024).

Tests used:
Type in all cases: in vivo
[1] = tested on: Amrasca biguttula (leaf hopper); assay: Field trials; details: unformulated; naturally infested; over time; comparable to commercial insecticides (FIG. 14)
Experimental: (§1) Field trials for peptide SB-P-66, unformulated, against various insects were conducted by third-party organisations PGRO and AgriScience.

Myzus persicae = assay: Field trials; details: unformulated; comparable to commercial insecticides
Experimental: as §1

Aphis gossypii = assay: Field trials on cotton and melon (AgriScience); details: unformulated, naturally infested, comparable to commercial insecticides (FIGS. 11, 12)
Experimental: as §1

bees = assay: Bee oral toxicity test (adapted from OECD Test No. 247: Bumblebee, Acute Oral Toxicity Test); details: 96 hours after application, compared to Imidacloprid (FIG. 9)
Experimental: Bee oral testing protocol was carried out adapted from OECD Test No. 247: Bumblebee, Acute Oral Toxicity Test. The toxicity of SB-P-66 was compared with a negative control of sucrose or vehicle, and with a current commercial insecticide Imidacloprid.

Myzus persicae aphids = assay: Leaf dip assay (IRAC susceptibility test method 019), mortality assessment; details: unformulated, mortality assessed at 72, 96 and 120 hours, compared to vehicle and Spirotetramat (FIGS. 6-8)
Experimental: The assay was carried out based on IRAC susceptibility test method 019 (https://irac-online.org/methods/aphids-adultnymphs/).
Fill a small 4 cm wide 3 cm high dish with a 1% agar treatment solution of the active chemical or control (ensuring 1 cm gap between the agar and the lid) and leave to set. Dip a 2.5 cm leaf disc into 3 ml of treatment solution allowing the treatment to coat the leaf. Leave the disc to dry for 1 hour and place onto the set agar. Place insects (Myzus persicae aphids) onto each of the leaf discs. Each unit is sealed with a close-fitting, ventilated lid. Place the agar dishes in a small plastic tray lined with moist tissue paper and ensure the water trays in the bottom of the incubator are filled with clean water and place within the incubator. An assessment of mortality is made at 72, 96 and 120 hours. Leaf dip assays were performed with SB-P-66, and compared to a negative control vehicle and a current commercial insecticide Spirotetramat. The activity of SB-P-66 is shown in FIGS. 6 and 7; SB-P-66 has good activity whilst being eco-friendly and targeted to specific pests unlike broad spectrum chemical insecticides such as Spirotetramat.

Aphis fabae = assay: Field trials on vining peas (PGRO); details: unformulated, naturally infested, comparable to commercial insecticides (FIGS. 10, 13)
Experimental: as §1

“H-PAFSSWG-NH2 [SB-P-66, [Hy]-PAFSSWG-[NH2]]” was tested, and the “efficacy in field trials against Amrasca biguttula” value [1] was “good efficacy”, the “efficacy in field trials against Myzus persicae” value (Myzus persicae) was “good efficacy” and the “efficacy in field trials against Aphis gossypii” value (Aphis gossypii) was “good efficacy”. The “bee oral toxicity (% survival)” value (bees) was “far lower toxicity”, the “activity against Myzus persicae (mortality)” value (Myzus persicae aphids) was “good activity” and the “efficacy in field trials against Aphis fabae” value (Aphis fabae) was “good efficacy”.
